Here are results for 65 compounds from US20230339851A1, “CXCR6 SULFONAMIDE COMPOUNDS” (CHEMOCENTRYX, INC., priority 2022, published 2023).

Molecules are shown by their SMILES.

For the experiment, the target named is T1, human CXCR6 (Homo sapiens, UniProt O00574).
T1 construct: expressed in transfected cells
T1 sequence (O00574 whole entry): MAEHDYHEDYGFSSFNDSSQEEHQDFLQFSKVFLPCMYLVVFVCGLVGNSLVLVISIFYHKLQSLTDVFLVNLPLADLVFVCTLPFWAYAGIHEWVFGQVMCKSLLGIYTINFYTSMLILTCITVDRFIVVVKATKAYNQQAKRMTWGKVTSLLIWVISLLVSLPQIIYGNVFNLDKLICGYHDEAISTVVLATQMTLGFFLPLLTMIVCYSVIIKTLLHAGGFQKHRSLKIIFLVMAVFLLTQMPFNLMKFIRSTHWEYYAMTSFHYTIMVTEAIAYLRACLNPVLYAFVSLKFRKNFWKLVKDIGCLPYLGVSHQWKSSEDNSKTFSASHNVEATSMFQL
Nature of the experiment: Radioligand Binding Assay (125I-CXCL16 displacement). The note with it: L1.2 cells stably transfected with human CXCR6 cDNA, 0.1 nM 125I-CXCL16, 4° C., three-hour incubation; read-out: Potency (IC50). The method, boiled down:
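Displacement of 0.1 nM 125I-CXCL16 from human CXCR6 stably expressed in L1.2 cells was measured after a 3 h, 4 °C incubation in HBSS with 0.1% BSA. Filter-bound cpm were counted, and IC50 values came from a 3-parameter nonlinear fit.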
A word on the IC50: it is the midpoint of a concentration-inhibition curve. On to `CCOc1cc(NC(=O)c2ccn(CC)c(=O)c2)ccc1S(=O)(=O)Nc1cccc(OC(F)(F)F)c1` [Example 1.396], for which the IC50 is ≤ 200 nM.

For the compound `COc1cc(NC(=O)c2ccnn2C)ccc1S(=O)(=O)Nc1ccc(Br)c(OC(F)(F)F)c1` [Example 1.397], the IC50 was ≤ 200 nM.

For `CCOc1cc(NC(=O)[C@@H](O)C(C)C)ccc1S(=O)(=O)Nc1ccc(Cl)cc1` [Example 1.398], the IC50 was in the range of 200 to 750 nM.

With `CCOc1cc(NC(=O)C(OC)c2ccccc2)ccc1S(=O)(=O)Nc1cccc(OC(F)(F)F)c1` (centres unmarked) [Example 1.399], the IC50 was ≤ 200 nM.

As to `Cc1cc(NC(=O)C(CO)C(C)C)ccc1S(=O)(=O)Nc1cccc(OC(F)(F)F)c1` (centres unmarked) [Example 1.400], the IC50 lay within 200 to 750 nM.

For `CCOc1cc(NC(=O)CC(O)C2CCOCC2)ccc1S(=O)(=O)Nc1cccc(OC(F)(F)F)c1` (centres unmarked) [Example 1.401], the IC50 was in the range of 200 to 750 nM. To `CCOc1cc(NC(=O)[C@@H](O)C(C)C)ccc1S(=O)(=O)Nc1ccc(C)c(CC)c1` [Example 1.402] belongs ≤ 200 nM; to `CCOc1cc(NC(=O)c2cccnc2)ccc1S(=O)(=O)Nc1cccc(OC(F)(F)F)c1` [Example 1.403], ≤ 200 nM. To `CCOc1cc(NC(=O)[C@@H]2CCCCC[C@@H]2O)ccc1S(=O)(=O)Nc1cccc(OC(F)(F)F)c1` [Example 1.404] belongs ≤ 200 nM; to `CCOc1cc(NC(=O)[C@@H](CO)c2ccccc2)ccc1S(=O)(=O)Nc1ccc(F)c(C)c1` [Example 1.405], 200 to 750 nM; to `CCOc1cc(NC(=O)C(O)C(F)(F)F)ccc1S(=O)(=O)Nc1cccc(OC(F)(F)F)c1` (centres unmarked) [Example 1.406], ≤ 200 nM. As for `Cc1cc(NC(=O)c2ccc(Cl)cc2)ccc1S(=O)(=O)Nc1cccc(C(F)(F)F)c1` [Example 1.407], the figure is 750 to 2000 nM; as for `CCOc1cc(NC(=O)C(NC)c2ccccc2)ccc1S(=O)(=O)Nc1cccc(OC(F)(F)F)c1` (centres unmarked) [Example 1.408], ≤ 200 nM; as for `COc1cc(NC(=O)c2ccnn2C)ccc1S(=O)(=O)Nc1ccc(F)c(OC(F)(F)F)c1` [Example 1.409], ≤ 200 nM. In the case of `CCOc1cc(NC(=O)[C@H]2CCOC[C@@H]2O)ccc1S(=O)(=O)Nc1cccc(OC(F)(F)F)c1` [Example 1.410], the IC50 fell in the range of 200 to 750 nM.

Take `CCOc1cc(NC(=O)[C@@H](O)C(C)C)ccc1S(=O)(=O)Nc1ccc(CC)c(C(F)(F)F)c1` [Example 1.411]: the IC50 is ≤ 200 nM. As for `CCOc1cc(NC(=O)[C@H]2CC[C@@H](OC)CC2)ccc1S(=O)(=O)Nc1cccc(OC(F)(F)F)c1` [Example 1.412], the figure is 750 to 2000 nM; as for `CCOc1cc(NC(=O)c2ccc(OC)nc2)ccc1S(=O)(=O)Nc1cccc(OC(F)(F)F)c1` [Example 1.413], ≤ 200 nM; as for `COc1cc(NC(=O)CC2CC2)ccc1S(=O)(=O)Nc1cccc(C(F)(F)F)c1` [Example 1.414], 2000 to 20000 nM.

Consider `CCOc1cc(NC(=O)[C@@H](NC(C)=O)C(C)C)ccc1S(=O)(=O)Nc1cccc(OC(F)(F)F)c1` [Example 1.415], for which the 50% inhibitory concentration (IC50) was ≤ 200 nM. As for `CCOc1cc(NC(=O)[C@@H](O)C2CCCC2)ccc1S(=O)(=O)Nc1cccc(OC(F)(F)F)c1` [Example 1.416], the figure is ≤ 200 nM; as for `COc1cc(NC(=O)C2CCCCC2C)ccc1S(=O)(=O)Nc1cccc(C(F)(F)F)c1` (centres unmarked) [Example 1.417], 750 to 2000 nM. For the compound `CCOc1cc(NC(=O)C(CC)CO)ccc1S(=O)(=O)Nc1cccc(OC(F)(F)F)c1` (centres unmarked) [Example 1.418], the IC50 is ≤ 200 nM. On to `COc1cc(NC(=O)CC2CCCCCC2)ccc1S(=O)(=O)Nc1cccc(C(F)(F)F)c1` [Example 1.419], for which the IC50 is 2000 to 20000 nM. As for `CCOc1cc(NC(=O)C2CCCOC2)ccc1S(=O)(=O)Nc1cccc(OC(F)(F)F)c1` (centres unmarked) [Example 1.420], the figure is 200 to 750 nM.

With `CCOc1cc(NC(=O)C(CC(C)C)C(=O)O)ccc1S(=O)(=O)Nc1cccc(OC(F)(F)F)c1` (centres unmarked) [Example 1.421], the IC50 was ≤ 200 nM. To `Cc1cc(NC(=O)[C@@H]2CCCN2C)ccc1S(=O)(=O)Nc1cccc(C(F)(F)F)c1` [Example 1.422] belongs 2000 to 20000 nM; to `COCCC(=O)Nc1ccc(S(=O)(=O)Nc2cccc(C(F)(F)F)c2)c(OC)c1` [Example 1.423], 2000 to 20000 nM. As for `COCC1(C(=O)Nc2ccc(S(=O)(=O)Nc3cccc(C(F)(F)F)c3)c(C)c2)CC1` [Example 1.424], the figure is 2000 to 20000 nM; as for `CCOc1cc(NC(=O)[C@@H](CO)c2ccccc2)ccc1S(=O)(=O)Nc1ccc(C)c(C(F)(F)F)c1` [Example 1.425], ≤ 200 nM; as for `COc1cc(NC(=O)[C@@H]2CCC[C@H]2NC(=O)OC(C)(C)C)ccc1S(=O)(=O)Nc1cccc(C(F)(F)F)c1` [Example 1.426], 2000 to 20000 nM.

For `CCOc1cc(NC(=O)C2CCNCC2)ccc1S(=O)(=O)Nc1cccc(OC(F)(F)F)c1` [Example 1.427], the IC50 fell in the range of 2000 to 20000 nM. As for `CCOc1cc(NC(=O)C(CO)CC2CC=CCC2)ccc1S(=O)(=O)Nc1cccc(OC(F)(F)F)c1` (centres unmarked) [Example 1.428], the figure is ≤ 200 nM; as for `CCOc1cc(NC(=O)[C@@H](NC(=O)OC(C)(C)C)c2ccccc2)ccc1S(=O)(=O)Nc1cccc(OC(F)(F)F)c1` [Example 1.429], 200 to 750 nM; as for `COc1cc(NC(=O)c2cc(C(F)(F)F)nn2C)ccc1S(=O)(=O)Nc1cccc(C(F)(F)F)c1` [Example 1.430], 750 to 2000 nM. To `CCOc1cc(NC(=O)[C@@H](O)C(C)C)ccc1S(=O)(=O)Nc1ccc(F)c(CC)c1` [Example 1.431] belongs ≤ 200 nM. For the compound `CCOc1cc(NC(=O)[C@H]2CCCC[C@H]2O)ccc1S(=O)(=O)Nc1cccc(OC(F)(F)F)c1` [Example 1.432], the IC50 is ≤ 200 nM. To `CCOc1cc(NC(=O)C2CCN(C(=O)OC(C)(C)C)CC2)ccc1S(=O)(=O)Nc1cccc(OC(F)(F)F)c1` [Example 1.433] belongs 2000 to 20000 nM; to `Cc1cc(NC(=O)C(C)(C)C)ccc1S(=O)(=O)Nc1cccc(C(F)(F)F)c1` [Example 1.434], 2000 to 20000 nM.

As to `CCOc1cc(NC(=O)C(C)C(O)C2CCCOC2)ccc1S(=O)(=O)Nc1cccc(OC(F)(F)F)c1` (centres unmarked) [Example 1.435], the IC50 lay within 200 to 750 nM. To `CCOc1cc(NC(=O)C(C(=O)O)C2CCOC2)ccc1S(=O)(=O)Nc1cccc(OC(F)(F)F)c1` (centres unmarked) [Example 1.436] belongs ≤ 200 nM; to `CCOc1cc(NC(=O)[C@@H](CO)c2ccccc2)ccc1S(=O)(=O)Nc1cccc(C(F)(F)F)c1` [Example 1.437], ≤ 200 nM. As for `COc1cc(NC(=O)[C@@H](O)C(C)C)ccc1S(=O)(=O)Nc1cccc(OC(F)(F)F)c1` [Example 1.438], the figure is ≤ 200 nM; as for `CCOc1cc(NC(=O)[C@@H](CO)c2ccccc2)ccc1S(=O)(=O)Nc1ccc(C)c(C(C)C)c1` [Example 1.439], ≤ 200 nM. In the case of `CCOc1cc(NC(=O)[C@@H](O)C(C)C)ccc1S(=O)(=O)Nc1ccc(F)c(C)c1` [Example 1.440], the IC50 lay in the range of 200 to 750 nM.

As to `CCOc1cc(NC(=O)[C@@H](CO)c2ccccc2)ccc1S(=O)(=O)Nc1ccc(C)c(Cl)c1` [Example 1.441], the IC50 fell in the range of 200 to 750 nM. For `COc1cc(NC(=O)C2CC(=O)N(C)C2)ccc1S(=O)(=O)Nc1cccc(OC(F)(F)F)c1` (centres unmarked) [Example 1.442], the IC50 lay in the range of 2000 to 20000 nM.

As to `Cc1cc(NC(=O)c2cccc(C(F)(F)F)c2)ccc1S(=O)(=O)Nc1cccc(C(F)(F)F)c1` [Example 1.443], the IC50 was 2000 to 20000 nM. As for `CC(=O)Nc1cc(C)c(S(=O)(=O)Nc2cccc(OC(F)(F)F)c2)c(F)c1` [Example 1.444], the figure is 2000 to 20000 nM; as for `CCOc1cc(NC(=O)[C@@H](O)C(C)C)ccc1S(=O)(=O)Nc1ccc(C)c(C(C)C)c1` [Example 1.445], ≤ 200 nM; as for `CCOc1cc(NC(=O)C(c2ccccc2)C(C)O)ccc1S(=O)(=O)Nc1cccc(OC(F)(F)F)c1` (centres unmarked) [Example 1.446], ≤ 200 nM. To `Cc1cc(NC(=O)c2ccccc2)ccc1S(=O)(=O)Nc1cccc(C(F)(F)F)c1` [Example 1.447] belongs 200 to 750 nM. Regarding `COc1cc(NC(=O)c2ccnn2C)ccc1S(=O)(=O)Nc1cc(OC(F)(F)F)ccc1F` [Example 1.448], the IC50 fell in the range of 200 to 750 nM.

As for `CCOc1cc(NC(=O)[C@H]2CCCC[C@H]2OC)ccc1S(=O)(=O)Nc1cccc(OC(F)(F)F)c1` [Example 1.449], the 50% inhibitory concentration (IC50) is 2000 to 20000 nM.

Take `Cc1cc(NC(=O)[C@@H](N)c2ccccc2)ccc1S(=O)(=O)Nc1cccc(OC(F)(F)F)c1` [Example 1.450]: the IC50 was ≤ 200 nM. To `CC(=O)Nc1cc(C)c(S(=O)(=O)Nc2cccc(C(F)(F)F)c2)c(F)c1` [Example 1.451] belongs 2000 to 20000 nM; to `CCOc1cc(NC(=O)C(O)c2ccc(F)cc2)ccc1S(=O)(=O)Nc1cccc(OC(F)(F)F)c1` (centres unmarked) [Example 1.452], ≤ 200 nM; to `CCOc1cc(NC(=O)[C@H]2CC=CC[C@@H]2CO)ccc1S(=O)(=O)Nc1cccc(OC(F)(F)F)c1` [Example 1.453], ≤ 200 nM. To `CCOc1cc(NC(=O)[C@@H](N)C(C)C)ccc1S(=O)(=O)Nc1cccc(OC(F)(F)F)c1` [Example 1.454] belongs ≤ 200 nM; to `CCOc1cc(NC(=O)C(CO)C2CCCC2)ccc1S(=O)(=O)Nc1cccc(OC(F)(F)F)c1` (centres unmarked) [Example 1.455], ≤ 200 nM; to `CC(C)c1cc(NC(=O)c2ccnn2C)ccc1S(=O)(=O)Nc1cccc(OC(F)(F)F)c1` [Example 1.456], 200 to 750 nM. To `COc1cc(NC(=O)C2CCCCC2=O)ccc1S(=O)(=O)Nc1cccc(OC(F)(F)F)c1` (centres unmarked) [Example 1.457] belongs 2000 to 20000 nM; to `CCOc1cc(NC(=O)C2CCCN(C(=O)OC(C)(C)C)C2)ccc1S(=O)(=O)Nc1cccc(OC(F)(F)F)c1` (centres unmarked) [Example 1.458], 2000 to 20000 nM.

For `Cc1cc(NC(=O)[C@@H](CO)c2ccccc2)ccc1S(=O)(=O)Nc1cccc(C(F)(F)F)c1` [Example 1.459], the IC50 was 750 to 2000 nM. As for `COc1cc(NC(=O)[C@@H](CO)C(C)C)ccc1S(=O)(=O)Nc1cccc(C(F)(F)F)c1` [Example 1.460], the figure is ≤ 200 nM.
